The source of these data is US9492510B2, “Composition and method for inhibiting tumor cell growth” (St. Jude Children's Research Hospital, priority 2006, dated 2016).

Entries after “also recorded” stand apart in the source; their conditions may differ. Read-outs that look alike come from different tables or passages of the source.

One series has as its system SK-N-As cells. Description: Growth inhibition of adenovirus-transduced SK-N-As cells by CPT-11. It counts as cell-based. The settings on record: Homo sapiens. On the procedure:
(§1) Construction of Adenovirus. Replication-deficient adenovirus expressing hCElm6 or rCE were constructed using standard protocols (Wierdl, et al. 2001. Cancer Res. 61:5078-5082). Multiplicity of infection (moi) was defined as the number of plaques produced in 1×10^6 293 cells in a total volume of 1 ml of media after incubation with virus for 1 hour.
(§2) Growth Inhibition Assays.

The target in series [1] is T1, hiCE (human intestinal carboxylesterase) (Homo sapiens, UniProt O00748).
T1 sequence (O00748 27-559): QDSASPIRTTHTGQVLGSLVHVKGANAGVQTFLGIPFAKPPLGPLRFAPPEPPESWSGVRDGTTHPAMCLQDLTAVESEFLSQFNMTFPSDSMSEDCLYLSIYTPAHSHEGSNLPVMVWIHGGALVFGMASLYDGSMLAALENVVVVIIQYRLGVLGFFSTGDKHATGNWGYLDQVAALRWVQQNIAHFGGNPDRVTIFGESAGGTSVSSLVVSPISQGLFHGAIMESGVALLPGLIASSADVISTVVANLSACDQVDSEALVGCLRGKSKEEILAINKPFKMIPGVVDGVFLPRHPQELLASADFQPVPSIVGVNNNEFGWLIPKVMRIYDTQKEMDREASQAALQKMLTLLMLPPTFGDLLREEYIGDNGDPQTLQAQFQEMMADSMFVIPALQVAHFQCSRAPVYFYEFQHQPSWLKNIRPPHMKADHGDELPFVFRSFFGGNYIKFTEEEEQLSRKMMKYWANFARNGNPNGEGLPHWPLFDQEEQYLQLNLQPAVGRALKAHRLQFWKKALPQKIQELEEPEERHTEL
Description: Kinetics of CPT-11 hydrolysis by purified hiCE. It counts as biochemical. The text has this: (§3) These experiments determined the Km, Vmax, kcat and kcat/Km values for the different enzymes.
(§4) Protein Purification. […] For hiCE, an alternative purification procedure was developed using DEAE chromatography and elution with a pH/salt gradient.
(§5) Determination of Kinetic Parameters for Substrate Hydrolysis.

Another series has as its system Rh30 cells. The series is described as follows: Growth inhibition of adenovirus-transduced Rh30 cells by CPT-11. The series is classed as cell-based. Conditions: Homo sapiens. On the procedure: as §1, §2
In series [2] the target is T2, hCE1 variant hCE1m6 (hCE1mut6; L362M, M363L, K459R, F448Y, Q449R, L358I, S364G, Q362 insertion), SEQ ID NO:3 (Homo sapiens, UniProt P23141, F449Y/K460R/L358I/L363M/M364L/Q450R/S365G).
T2 sequence (P23141 18-567 L358I/L363M/M364L/S365G/F449Y/Q450R/K460R): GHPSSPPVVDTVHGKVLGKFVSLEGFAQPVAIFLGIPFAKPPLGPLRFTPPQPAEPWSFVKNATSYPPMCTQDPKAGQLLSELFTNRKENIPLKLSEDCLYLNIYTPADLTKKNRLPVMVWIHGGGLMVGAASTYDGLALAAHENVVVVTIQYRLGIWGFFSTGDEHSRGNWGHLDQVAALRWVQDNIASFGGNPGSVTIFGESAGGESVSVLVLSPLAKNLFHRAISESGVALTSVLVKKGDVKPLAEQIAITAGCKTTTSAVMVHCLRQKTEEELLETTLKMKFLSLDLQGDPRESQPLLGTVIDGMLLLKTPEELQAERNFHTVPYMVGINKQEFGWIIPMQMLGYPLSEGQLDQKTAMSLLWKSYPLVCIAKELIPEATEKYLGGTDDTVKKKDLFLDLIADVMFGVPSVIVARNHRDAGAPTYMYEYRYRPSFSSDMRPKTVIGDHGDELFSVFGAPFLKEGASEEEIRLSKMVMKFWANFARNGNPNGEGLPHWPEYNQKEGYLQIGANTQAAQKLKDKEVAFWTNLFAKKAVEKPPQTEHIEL
The series is described as follows: Kinetics of CPT-11 hydrolysis by purified hCE1m6. The series is classed as biochemical.
Source text: as §3, §4, §5

Another series deals with COS7 cells. The series is described as follows: Growth inhibition of transiently transfected Cos7 cells by CPT-11. The settings on record: Chlorocebus sabaeus. The series is classed as cell-based, African green monkey. On the procedure: (§6) Transfection of Cell Lines. Transient transfection of Cos7 cells was achieved by electroporation (Potter, et al. 1998. Cancer Res. 52:2646-2651). For the generation of stable cell lines, cDNAs were ligated into pIRESneo and U373MG cells were electroporated under similar conditions. Transfectants were selected in media containing 400 μg/ml of G418. Since the CE cDNA was linked via an internal ribosome entry sequence (IRES) to the neomycin gene, selection of individual G418-resistant clones was not necessary.
as §2

The test system of series [3] is U373MG cells. Description: Growth inhibition of U373MG cells expressing intracellular or secreted hCE1mut6 by CPT-11. The series is classed as cell-based. Conditions: Homo sapiens, U373 MG, read-out: IC50 for CPT-11. On the procedure:
(§7) Experiments were also performed to determine whether cells expressing a secreted form of hCElm6 (SEQ ID NO:16) produced media that had CE activity.
as §2

For series [4] the following is noted: patients; cited from earlier work.
For series [5], the system named is rCE (rabbit liver carboxylesterase), wild type, SEQ ID NO:2. Conditions: CPT-11 hydrolysis; cited from earlier work.
The conditions of series [6]: mice, within the first hour of dosing; cited from earlier work.
The subject of series [7] is hCE1 (human liver carboxylesterase), wild type, SEQ ID NO:1. The settings on record: CPT-11 hydrolysis; cited from earlier work.
In series [8] the test system is U373MG cells. Description: Growth inhibition by CPT-11 of U373MG cells. It counts as cell-based, human. On the procedure:
Experiments were also performed in human brain tumor cells (U373MG) where the growth of the cells was examined in cells that expressed the mutant form of the human CE enzyme.
as §7, §6, §1, §2

The conditions of series [9]: CPT-11 administered to humans; cited from earlier work.
In another series the test system is topoisomerase I. Conditions: cited from earlier work.
Series [10] in a line: Kinetic parameters for CPT-11 hydrolysis by purified recombinant CEs. Conditions: hCE1 and rCE values rest on cited data. It counts as biochemical. On the procedure:
To directly compare the abilities of the mammalian CEs to hydrolyze CPT-11, a series of biochemical studies were carried out using the purified proteins in vitro. These experiments determined the Km, Vmax, kcat and kcat/Km values for the different enzymes.
as §4, §5

Substrate in series [11]: CCc1c2c(nc3ccc(OC(=O)N4CCC(N5CCCCC5)CC4)cc13)-c1cc3c(c(=O)n1C2)COC(=O)[C@]3(O)CC
Description: purified protein, by the assay type. Conditions: other: CPT-11 hydrolysis, hiCE.

The nature of series [12]: CE activity (o-NPA) in human tumor cell lines expressing CE after plasmid transfection or adenoviral transduction. It counts as biochemical.
Source text: […], it was observed that expression of hiCE following plasmid-mediated transfection was frequently lower than that seen with rCE or […]. […] Since expression of the transgene from this expression vector is co-regulated with the neo gene via an IRES sequence, selection with similar concentrations of G418 should result in cell lines that express approximately equal levels of recombinant protein. However, the average levels of CE activity in U373hiCE, U373hCE1 and U373hCE1m6 cells were 287.6±76.6, 1077.1±77.5, and 466.5±52.6 nmoles/min/mg, respectively.
Carboxylesterase Assays. CE activity was determined using a spectrophotometric assay with 3 mM o-nitrophenyl acetate (o-NPA) as a substrate (Potter, et al. 1998. Cancer Res. 52:2646-2651; Wierdl, et al. 2001. Cancer Res. 61:5078-5082; Beaufay, et al. 1974. J. Cell Biol. 61:188-200). Data were expressed as nmoles o-nitrophenol produced per minute per milligram of protein. To correct for differences in CE expression within transfected cells, the enzyme activity values were corrected for the level of immuno-reactive CE protein as determined from western analyses.
as §6, with “necessary. Routinely, whole cell sonicates obtained from these pooled populations of cells contained 200-500 nmoles/min/mg of CE activity.” for “necessary.”
as §1

Series [13] is described as follows: In vitro stability of purified CE stored at room temperature in 50 mM Hepes. The series is classed as physicochemical. The settings on record: purified protein in 50 mM Hepes pH7.4, room temperature. On the procedure:
Enzymes were aliquoted in 50 mM Hepes, stored at 20° C. and CE activities were determined at various time intervals, up to 11 weeks. Data are expressed as the amount of active CE remaining as compared to day 0.
Therefore, the loss of CE activity was evaluated in preparations of these proteins, as well as hCElm6 that had been stored at room temperature. In these studies, purified protein was aliquoted in 50 mM Hepes pH7.4, and enzyme activity was determined over a period of 12 weeks.

Regarding `CCc1c2c(nc3ccc(OC(=O)N4CCC(N5CCCCC5)CC4)cc13)-c1cc3c(c(=O)n1C2)COC(=O)[C@]3(O)CC` [CPT-11, 7-ethyl-10-[4-(1-piperidino)-1-piperidino]carbonyloxycamptothecin], the IC50 is 0.5 µM in the series on SK-N-As cells (read-out: CPT-11 IC50, AdCMVhCE1m6, hCE1m6); 0.6 µM in the series on SK-N-As cells (read-out: CPT-11 IC50, AdCMVrCE, rCE); 31.7 µM in the series on SK-N-As cells (read-out: CPT-11 IC50, AdVC, no enzyme); 0.002 µM in the series on SK-N-As cells (read-out: IC50, SK-N-As, transduced cells); 2 µM in the series on Rh30 cells (Rh30, read-out: CPT-11 IC50, AdCMVhCE1m6, hCE1m6); 3.4 µM in the series with Rh30 cells (Rh30, read-out: CPT-11 IC50, AdCMVrCE, rCE). The IC50 with Rh30 cells (Rh30, read-out: CPT-11 IC50, AdVC, no enzyme) was 64.3 µM; with Rh30 cells (Rh30, read-out: IC50, Rh30, transduced cells), 0.0006 µM; in the series on COS7 cells (COS-7, read-out: IC50 (growth inhibition), cells expressing hCE1mut6) it was 12 to 20 µM; in the series on COS7 cells (COS-7, read-out: IC50 (growth inhibition), cells expressing rCE) it was 12 to 20 µM; in the series with COS7 cells (COS-7, read-out: IC50 (growth inhibition), cells expressing wild-type hCE1) it was 77.1 µM; in the series with U373MG cells [3], 7.08 µM. Further, the IC50 in the series with U373MG cells [8] (Homo sapiens, U373 MG, read-out: CPT-11 IC50, U373IRES cells (pIRESneo, no enzyme expressed)) was 24 µM. Also, the Vmax is given as 1.49 ± 0.04 nmol/min/mg in series [1], 2.11 ± 0.06 nmol/min/mg in [2], 18 ± 0.9 nmol/min/mg in series [5] and 0.36 ± 0.017 nmol/min/mg in series [7]. Besides, the dose-limiting toxicity entry in [4] is “myelosuppression and secretory diarrhea limit the amount of prodrug; also recorded: myelosuppression and secretory diarrhea limit the amount of drug”. Also, the Km in [5] was 6.2 ± 0.63 µM; in series [7], 82.8 ± 9.6 µM. Moreover, in [6], the “fraction of CPT-11 hydrolyzed to SN-38” value was “greater than 50%”. Besides, in series [9], the “fraction of CPT-11 converted to SN-38” value is given as “less than 5%”.

As to `CCc1c2c(nc3ccc(O)cc13)-c1cc3c(c(=O)n1C2)COC(=O)[C@]3(O)CC` [SN-38, 7-ethyl-10-hydroxy-camptothecin], the “inhibition of topoisomerase I” value in the series on topoisomerase I was “potent inhibitor of topoisomerase I”.

B1: hiCE (human intestinal carboxylesterase) (Homo sapiens) (protein)
chain: QDSASPIRTTHTGQVLGSLVHVKGANAGVQTFLGIPFAKPPLGPLRFAPPEPPESWSGVRDGTTHPAMCLQDLTAVESEFLSQFNMTFPSDSMSEDCLYLSIYTPAHSHEGSNLPVMVWIHGGALVFGMASLYDGSMLAALENVVVVIIQYRLGVLGFFSTGDKHATGNWGYLDQVAALRWVQQNIAHFGGNPDRVTIFGESAGGTSVSSLVVSPISQGLFHGAIMESGVALLPGLIASSADVISTVVANLSACDQVDSEALVGCLRGKSKEEILAINKPFKMIPGVVDGVFLPRHPQELLASADFQPVPSIVGVNNNEFGWLIPKVMRIYDTQKEMDREASQAALQKMLTLLMLPPTFGDLLREEYIGDNGDPQTLQAQFQEMMADSMFVIPALQVAHFQCSRAPVYFYEFQHQPSWLKNIRPPHMKADHGDELPFVFRSFFGGNYIKFTEEEEQLSRKMMKYWANFARNGNPNGEGLPHWPLFDQEEQYLQLNLQPAVGRALKAHRLQFWKKALPQKIQELEEPEERHTEL
B1: the “Ratio kcat/Km as compared to hCE1” value in series [10] was 91. In series [11], the Km turned out to be 3.35 ± 0.34 µM. Moreover, the “average levels of CE activity” value in series [12] (U373MG cells stably transfected with pIRESneo constructs, monitored over an extended time period) came out at 287.6 ± 76.6 nmol/min/mg. In addition, the CE Activity in series [12] (± SD, U373MG cells stably transfected (pIRESneo) expressing the enzyme) is given as 408.2 ± 5.6 nmol/min/mg. The “time to loss of 50% of CE activity” value in series [13] is roughly 30 days. For the same molecule, the “sensitization of cells to CPT-11” value with U373MG cells [8] (U373MG cells expressing the labelled enzyme) is given as “sensitized”.
